{"source": "patent US9650417B2", "about": "“Treatments for gastrointestinal disorders” (Ironwood Pharmaceuticals, Inc., priority 2011, dated 2017)", "key": {"[1]": {"assay": "In vitro metabolism in mouse jejunum loop fluid", "format": "in vitro ADME", "conditions": "for metabolism in control reaction: 120 minute incubation; for degradation rate compared with peptide 2: mouse intestinal fluid", "experimental": "The purpose of this study was to determine the stability of phosphorylated peptides in mouse jejunal loop fluid. […] The isotopically labeled peptide 2 was synthesized with ^13C, ^15N-labeled alanine and leucine (i.e., with a sequence CCpS[^13C6, ^15N]LCCNP[^13C6, ^15N]ACTGC).\nEach peptide was synthesized by American Peptide Company, Inc., and was stored desiccated at −20° C. A 1 mg/mL solution for each of the non-labeled peptides was prepared in 1 M tris(hydroxymethyl)aminomethane hydrochloride (Tris-HCl), pH 8 just prior to conducting the mouse intestinal loop fluid assay. A 500 ng/mL solution of ^13C, ^15N-labeled peptide 2 was prepared in 0.1% formic acid in water and was utilized to dilute the jejunum samples for post-assay LC-MS/MS analysis.\nTo collect the fluid, mice were fasted overnight with full access to water. They were then anesthetized with isofluorane for surgery and subjected to laparotomy in which the small intestine was exteriorized. Jejunum loops of 3 to 4 cm in length were made with sutures starting at 7 cm from the pyloric sphincter of the stomach. Once the loops were formed, they were injected with 200 μL of phosphate buffered saline (PBS) buffer (10 mM, pH 7.4). The abdominal wall and skin of the animals were then sutured, and the animals were allowed to recover for 30 minutes. Following recovery, the animals were sacrificed, the loops were then excised and the fluid inside was recovered and stored at −80° C. until use.\nFor each peptide, 25 μL of the 1 mg/mL peptide stock solution was added to 25 μL of 1 M Tris-HCl and 25 μL of 10× calf intestinal phosphatase (CIP) buffer containing 500 mM Tris-HCl, 1 M sodium chloride (NaCl), 0.1 mM magnesium chloride (MgCl2), pH 8. The reactions were initiated by adding 175 μL of the mouse jejunum loop fluid or 175 μL of the 1 M Tris-HCl pH8 buffer for the control reactions. The final concentration of each peptide was 100 μg/mL. The reactions were continuously mixed and maintained at 37° C. on a plate shaker. At 0, 2, 5, 10, 20, 30, 60, 90 and 120 minutes after adding the mouse intestinal loop fluid, a 25 μL aliquot was taken and added to 25 μL of 4° C. 12% trichloroacetic acid to stop the reaction. An additional 200 μL of 0.1% formic acid in water was added to these reactions for dilution purposes. These samples were then further diluted by taking 20 μL of each sample and adding it to 480 μL of 0.1% formic acid in water containing 500 ng/mL of the internal standard 13C, 15N-labeled peptide 2.\nAll samples were analyzed using an Applied Biosystems/MDS SCIEX API 4000 triple quadrupole mass spectrometer equipped with a high-performance liquid chromatography (HPLC) system. The mass spectrometer was operated in multiple reaction monitoring (MRM) mode, with resolution set to 1.2 Da.\nThe LC-MS/MS data were processed using Analyst version 1.4.2 software (Applied Biosystems/MDS SCIEX). The peak area ratio (ratio of analyte peak area to internal standard peak area) was used to calculate the percent remaining of each peptide."}, "[2]": {"target": "T1, Calf intestinal alkaline phosphatase (CIP) (Bos taurus, UniProt P19111)", "T1 construct": "purchased New England BioLabs, Ipswich, Mass; MO290S", "T1 sequence (P19111 20-506)": "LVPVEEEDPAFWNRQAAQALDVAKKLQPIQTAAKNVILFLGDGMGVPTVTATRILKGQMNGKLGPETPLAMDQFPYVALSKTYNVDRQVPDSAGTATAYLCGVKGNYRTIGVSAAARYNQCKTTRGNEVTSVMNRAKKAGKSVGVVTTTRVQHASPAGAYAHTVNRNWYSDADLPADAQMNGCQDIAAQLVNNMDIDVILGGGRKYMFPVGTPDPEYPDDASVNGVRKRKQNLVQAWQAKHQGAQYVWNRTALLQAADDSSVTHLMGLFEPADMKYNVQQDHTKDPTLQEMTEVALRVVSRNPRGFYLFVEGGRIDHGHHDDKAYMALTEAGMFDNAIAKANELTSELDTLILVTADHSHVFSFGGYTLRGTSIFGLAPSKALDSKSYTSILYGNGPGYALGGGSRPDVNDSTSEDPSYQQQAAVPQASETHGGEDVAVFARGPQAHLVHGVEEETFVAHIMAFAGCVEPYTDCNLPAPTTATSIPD", "assay": "Alkaline phosphatase reaction (dephosphorylation of peptide substrates)", "format": "in vitro ADME", "conditions": "with and without calf intestinal alkaline phosphatase; data not shown", "experimental": "For the alkaline phosphatase reactions, peptide stocks were prepared at 1 mg/mL in 0.1 M Tris-HCl pH 8, which were stored at −20° C. until assays were conducted. For the acid phosphatase reactions, peptide stocks were prepared at 1 mg/mL in 50 mM sodium phosphate pH 6, which was stored at −20° C. until assays were conducted.\nCalf intestinal alkaline phosphatase (CIP) was obtained from New England BioLabs, Ipswich, Mass. Cat # MO290S. The CIP reaction solution was prepared by dilution with buffer (50 mM KCl, 10 mM Tris-HCl pH 8, 1 mM MgCl2, 50% glycerol) to 0.5 units/μL. The alkaline phosphatase reaction solutions were assembled in 20 μL quantities containing:\n2 μL 10×CIP buffer (1M NaCl, 500 mM Tris-HCl pH 8, 100 mM MgCl2)\n2 μL peptide stock (1 mg/mL)\n4 μL alkaline phosphatase (0, 0.5 or 2 units)\nThe reaction solutions were mixed gently and incubated for 90 minutes at 37° C. These reaction solutions were stored at −20° C. until analysis. For analysis, the reaction solutions were diluted from 7.5 μL of CIP treated peptide to 50 μL with 0.1% formic acid in water to a final concentration of 10 μM.\nControl reactions were assembled for enzyme activity containing 10 mM p-nitrophenylphosphate in place of peptide. After incubation, the reactions were diluted with 0.1 mL of 100 mM borate buffer pH 9 and read at the absorbance of 405 nm to monitor p-nitrophenol appearance."}, "[3]": {"target": "T2, GC-C (Homo sapiens, UniProt P25092)", "T2 construct": "endogenous in cells; host or cells: T84 cells", "T2 sequence (P25092 24-1073)": "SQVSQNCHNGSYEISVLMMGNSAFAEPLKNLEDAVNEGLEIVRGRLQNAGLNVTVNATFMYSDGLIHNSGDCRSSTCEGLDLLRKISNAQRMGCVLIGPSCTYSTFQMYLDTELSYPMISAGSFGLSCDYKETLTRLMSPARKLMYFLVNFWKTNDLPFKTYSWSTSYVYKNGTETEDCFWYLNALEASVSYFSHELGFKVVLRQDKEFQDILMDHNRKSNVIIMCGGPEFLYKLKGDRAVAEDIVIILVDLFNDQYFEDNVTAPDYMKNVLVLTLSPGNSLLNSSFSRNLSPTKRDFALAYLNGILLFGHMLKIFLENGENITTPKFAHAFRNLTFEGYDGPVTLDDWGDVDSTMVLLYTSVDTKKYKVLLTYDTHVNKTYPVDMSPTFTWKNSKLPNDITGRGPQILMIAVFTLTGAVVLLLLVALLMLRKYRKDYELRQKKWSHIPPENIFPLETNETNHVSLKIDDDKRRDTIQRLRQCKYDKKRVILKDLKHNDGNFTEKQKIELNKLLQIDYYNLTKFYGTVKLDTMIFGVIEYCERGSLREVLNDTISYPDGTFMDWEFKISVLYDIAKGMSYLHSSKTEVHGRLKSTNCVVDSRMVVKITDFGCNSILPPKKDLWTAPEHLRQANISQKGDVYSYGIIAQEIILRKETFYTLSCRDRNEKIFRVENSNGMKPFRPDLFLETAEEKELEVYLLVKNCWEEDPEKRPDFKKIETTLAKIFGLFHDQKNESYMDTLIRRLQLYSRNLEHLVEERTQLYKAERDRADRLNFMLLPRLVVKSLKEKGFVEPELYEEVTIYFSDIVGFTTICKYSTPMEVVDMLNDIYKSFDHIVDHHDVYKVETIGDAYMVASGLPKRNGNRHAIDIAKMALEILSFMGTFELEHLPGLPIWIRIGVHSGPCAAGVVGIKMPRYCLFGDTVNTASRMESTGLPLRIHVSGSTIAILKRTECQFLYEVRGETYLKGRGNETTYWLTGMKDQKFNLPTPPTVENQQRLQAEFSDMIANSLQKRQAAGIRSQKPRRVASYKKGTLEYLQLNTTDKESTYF", "assay": "cGMP accumulation in T84 cells for analysis of GC-C activity", "format": "cell-based", "experimental": "For the cGMP assay, 4.5×10^5 cells/mL of T84 cells were grown overnight in 24 well tissue culture plates. […] After the second wash, the cells were incubated with 450 μL of 1 mM isobutylmethylxanthine (IBMX) in either the pH 5 or pH 8 buffers for 10 minutes at 37° C. to inhibit any phosphodiesterase activity. The peptides were then diluted in either pH 5 or pH 8 buffer to a 10× concentration. The peptide solution of 50 μL was diluted to a final volume of 500 μL with the T84 cells, bringing each peptide concentration to 1×. An eleven point curve analysis was conducted for each peptide, with final peptide concentrations tested in each assay, in nM: 10000, 3000, 1000, 300, 100, 30, 10, 3, 1, 0.3, 0.1.\nThere was no peptide control used to determine endogenous levels of cGMP. Peptides were incubated for 30 minutes at 37° C. After 30 minutes, the supernatants were removed and the cells were lysed with 0.1 M HCl. The cells were lysed for 30 minutes on ice. After 30 minutes, lysates were pipetted off and placed into a 96 well HPLC plate and spun at 10,000×g for 10 minutes to remove any cell debris. […]\ncGMP concentrations were determined from each sample using the LC/MS conditions in Table 4 and a calculated standard curve. EC50 values were calculated from concentration-response curves generated with GraphPad Prism Software. […]"}, "[4]": {"conditions": "oral administration at therapeutic dose levels; cited from earlier work"}, "[5]": {"conditions": "control reaction (1 M Tris-HCl) at 37° C."}}, "note": "Bridge positions count the residues as written; N and C are the ends. Square brackets hold non-standard residues; d marks the D form. Peptide text beside a SMILES is read from it. pS = N[C@@H](COP(=O)(O)O)C(=O)O"}
{"smiles": "CC(C)C[C@@H]1NC(=O)[C@H](CO)NC(=O)[C@@H]2CSSC[C@@H]3NC(=O)[C@H](C)NC(=O)[C@@H]4CCCN4C(=O)[C@H](CC(N)=O)NC(=O)[C@H](CSSC[C@H](N)C(=O)N2)NC(=O)[C@H](CSSC[C@@H](C(=O)O)NC(=O)CNC(=O)[C@H]([C@@H](C)O)NC3=O)NC1=O", "note": "[Dephospho-Peptide 2, CCSLCCNPACTGC] (H-CCSLCCNPACTGC-OH; disulfide 1-6, 2-10, 5-13 (inferred); N-terminus and C-terminus assumed)", "values": [{"measurement": "metabolism in control reaction", "setting": "[1]; [5]", "value": "not metabolized"}, {"measurement": "degradation rate compared with peptide 2", "setting": "[1]", "value": "degraded faster"}]}
{"smiles": "CC(C)C[C@@H]1NC(=O)[C@H](COP(=O)(O)O)NC(=O)[C@@H]2CSSC[C@@H]3NC(=O)[C@H](C)NC(=O)[C@@H]4CCCN4C(=O)[C@H](CC(N)=O)NC(=O)[C@H](CSSC[C@H](N)C(=O)N2)NC(=O)[C@H](CSSC[C@@H](C(=O)O)NC(=O)CNC(=O)[C@H]([C@@H](C)O)NC3=O)NC1=O", "note": "[Peptide 2, CCpSLCCNPACTGC] (H-CC[pS]LCCNPACTGC-OH; disulfide 1-6, 2-10, 5-13 (inferred); N-terminus and C-terminus assumed)", "values": [{"measurement": "formation of metabolite dephospho-peptide 2 in control reaction", "setting": "[1]; [5]", "value": "no dephospho-peptide 2 was formed"}, {"measurement": "metabolism in control reaction", "setting": "[1]; [5]", "value": "not metabolized"}]}
{"smiles": "CC(C)C[C@@H]1NC(=O)[C@H](CCC(=O)O)NC(=O)[C@@H]2CSSC[C@@H]3NC(=O)[C@H](C)NC(=O)[C@@H]4CCCN4C(=O)[C@H](CC(N)=O)NC(=O)[C@H](CSSC[C@H](N)C(=O)N2)NC(=O)[C@H](CSSC[C@@H](C(=O)N[C@@H](Cc2ccc(O)cc2)C(=O)O)NC(=O)CNC(=O)[C@H]([C@@H](C)O)NC3=O)NC1=O", "note": "[Peptide 3, CCELCCNPACTGCY] (H-CCELCCNPACTGCY-OH; disulfide 1-6, 2-10, 5-13 (inferred); N-terminus and C-terminus assumed)", "values": [{"measurement": "effect of CIP treatment (LC-MS)", "setting": "[2]", "value": "not affected"}, {"measurement": "detection of peptide in mouse jejunum fluid", "setting": "[1]; after 90 minutes, 37° C., 100 μg/mL", "value": "not detected"}, {"measurement": "metabolism in control reaction", "setting": "[1]; [5]", "value": "not metabolized"}, {"measurement": "degradation rate compared with peptide 2", "setting": "[1]", "value": "degraded faster"}]}
{"smiles": "CC(C)C[C@@H]1NC(=O)[C@H](COP(=O)(O)O)NC(=O)[C@@H]2CSSC[C@@H]3NC(=O)[C@H](C)NC(=O)[C@@H]4CCCN4C(=O)[C@H](CC(N)=O)NC(=O)[C@H](CSSC[C@H](NC(=O)[C@H](CC(=O)O)NC(=O)[C@@H](N)CC(=O)O)C(=O)N2)NC(=O)[C@H](CSSC[C@@H](C(=O)N[C@@H](Cc2ccc(O)cc2)C(=O)O)NC(=O)CNC(=O)[C@H]([C@@H](C)O)NC3=O)NC1=O", "note": "[Peptide 5, DDCCpSLCCNPACTGCY] (H-DDCC[pS]LCCNPACTGCY-OH; disulfide 3-8, 4-12, 7-15 (inferred); N-terminus and C-terminus assumed)", "values": [{"measurement": "EC50", "setting": "[3]", "value": 14.7, "unit": "nM"}]}
{"smiles": "C[C@@H]1NC(=O)[C@@H]2CCCN2C(=O)[C@H](CC(N)=O)NC(=O)[C@@H]2CSSC[C@H](N)C(=O)N[C@H]3CSSC[C@H](NC1=O)C(=O)N[C@@H]([C@@H](C)O)C(=O)NCC(=O)N[C@H](C(=O)N[C@@H](Cc1ccc(O)cc1)C(=O)O)CSSC[C@H](NC(=O)[C@H](Cc1ccc(O)cc1)NC(=O)[C@H](CCC(=O)O)NC3=O)C(=O)N2", "note": "[linaclotide, Linaclotide] (H-CCEYCCNPACTGCY-OH; disulfide 1-6, 2-10, 5-13)", "values": [{"measurement": "systemic levels after oral administration", "setting": "[4]", "value": "no detectable levels"}]}
